Some test systems named below: BT-549 breast; CAKI-1 renal; CCRF-CEM leukemia; HCC-2998 colon; HCT-116 colon; NCI-H23 lung; RPMI-8226 leukemia; SNB-19 CNS; UACC-62 melanoma; UO-31 renal.
What all share (experiment): NCI-60 cell line screen, 48 h

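Five concentrations, 48 hours, 96-well plates. At the GI50, growth is halved. Definition used: TGI = concentration required for complete inhibition of growth.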 Bounds are passed on as bounds.

In the case of `CCCCCn1sc(=O)n(Cc2ccc(CNC(=O)C(C)c3ccc(CC(C)C)cc3)cc2)c1=O` (centres undefined), the GI50 in the experiment with BT-549 breast is 0.972 µM; in the experiment with CAKI-1 renal, 0.562 µM; with CCRF-CEM leukemia it was 0.337 µM; in the experiment with HCC-2998 colon, 1.87 µM; in the experiment on HCT-116 colon, 0.194 µM; in the experiment with NCI-H23 lung it was 1.45 µM. Also, the GI50 is 0.353 µM in the experiment on RPMI-8226 leukemia, 1.55 µM with SNB-19 CNS, 1.3 µM in the experiment on UACC-62 melanoma and 0.561 µM in the experiment on UO-31 renal. For the same compound, the TGI was 2.23 µM with BT-549 breast; 1.92 µM in the experiment on CAKI-1 renal; 3.42 µM with HCC-2998 colon; 0.72 µM in the experiment with HCT-116 colon; 2.96 µM in the experiment with NCI-H23 lung; 2.1 µM with RPMI-8226 leukemia. The results for the TGI in the experiment on SNB-19 CNS, in the experiment on UACC-62 melanoma and with UO-31 renal were 2.91 µM, 2.62 µM and 1.99 µM, respectively.

Regarding `CC[C@H](C)[C@H](NC(=O)CN(C)C)C(=O)N(C)[C@H](C[C@@H](OC(C)=O)c1nc(C(=O)NC23C4C5C2C2C3C4C52C(=O)OC)cs1)C(C)C` (some centres undefined), the GI50 in the experiment on BT-549 breast was 0.431 µM; in the experiment on CAKI-1 renal it was 7.13 µM; with CCRF-CEM leukemia it was 0.18 µM; with HCC-2998 colon it was 0.631 µM; in the experiment with HCT-116 colon it was 0.201 µM; in the experiment with NCI-H23 lung it was 1.42 µM. The GI50 in the experiment with RPMI-8226 leukemia is 0.115 µM; with SNB-19 CNS it was 1.31 µM; in the experiment with UACC-62 melanoma, 0.19 µM; with UO-31 renal it was 3.6 µM. For the same compound, the TGI in the experiment with BT-549 breast was over 20.1 µM; in the experiment with CAKI-1 renal, over 33.2 µM; in the experiment on CCRF-CEM leukemia it was over 33.2 µM; in the experiment on HCC-2998 colon, over 33.2 µM; in the experiment with HCT-116 colon, over 33.2 µM; in the experiment with NCI-H23 lung, over 33.2 µM. Moreover, the TGI in the experiment with RPMI-8226 leukemia is over 11.4 µM; in the experiment on SNB-19 CNS it was over 33.2 µM; in the experiment with UACC-62 melanoma, over 33.2 µM; in the experiment on UO-31 renal, over 33.2 µM.

The values are drawn from PubChem BioAssay (NCI).
